Measured values reported in patent US6995140B1, “Peptides and polypeptides useful for regenerating the nervous system” (NUCLEICA, priority 1997, dated 2006).
Where no end group is shown, it is not given here.

Key:
cortical neuronal cells = test: Dissociated cell cultures of cerebral hemispheres of 8-day old chicken embryos (cortical neurons); format: cell-based; conditions: for overall effect on cortical neuron cultures (aggregation, adhesion, neuritic growth): in comparison with peptide SEQ ID NO: 8; for adherent cells carrying neurites relative to controls (controls 24.4%): 4 days of culture
Experimental: Dissociated Cell Cultures of Cerebral Hemispheres of 8-Day Old Chicken Embryos
The neuronal cultures are obtained from 8-day old chicken embryos. The cerebral hemispheres, after removing the meninges, are cut into small pieces and enzymatically dissociated with 0.25% of trypsin in a PBS saline buffer free of calcium and of magnesium for 15 minutes at 37° C.
The cells are centrifuged at 200 g for 5 minutes in DMEM medium with 20% FCS for the trypsin inactivation. The cells are then filtered on nylon membrane (pore size: 48 microns) and collected in a chemically defined medium free of serum containing a 1/1 mixture of DMEM and Ham's F12 medium supplemented with glutamine (4 mM), glucose (33 mM), penicillin G (50 U/ml), streptomycin sulfate (50 μg/ml) and an N2 supplement of Bottenstein and Sato (1979): putrescine (100 μM), sodium selenite (30 nM), human transferrin (50 μg/ml), progesterone (20 nM), insulin (5 μg/ml) and β-estradiol (1 pM). All the N2 supplements were bought from Sigma.
The cells are plated at a density of 7.5×10^4 cells/cm^2 on 24-well plastic plates. For some experiments, the plastic plates are coated either with fibronectin (24 μg/ml) or with thrombospondin (20 μg/ml). The cultures are incubated at 37° C. and under air containing 10% CO2. The medium is not changed during the experiment. These cultures consist of nearly 95% of neurons.
Moreover, the effect of the peptides according to the present invention SEQ ID NO: 8 and NO: 11 on cultures at low density was studied.

spinal cord neurons = test: Cell cultures of spinal neurons; format: cell-based, chicken; conditions: compared with controls
Experimental: Cell Cultures of Spinal Neurons
The spinal cords of 6-day old chicken embryos are dissected, freed of their meningeal membrane and cut into small pieces in a phosphate buffer (PBS) free of calcium and of magnesium. After incubation with 0.25% trypsin for 10 minutes at 37° C., the tissue is centrifuged at 200 g for 4 minutes in a growth medium containing 20% fetal calf serum in order to stop the trypsinization. The cells are then dissociated by repeated trituration using a Pasteur pipette and resuspended in a chemically defined medium free of serum as above.
The cells are plated at a density of 7.5×10^4 cells/cm^2 on 24-well plastic culture plates. The cultures are incubated at 37° C. and under air containing 10% CO2. The medium is not changed during the experiments and it has already been shown that this type of cell population contained more than 93% of neurons.

[1] = test system: NIB104 neuroblastoma cells; test: Culture of cells derived from the NIB104 neuroblastoma; format: cell-based
Experimental: The cells derived from the NIB104 neuroblastoma were cultured in 24-well plastic plates previously coated with a film of poly-L-lysine, under conditions similar to those for the primary cultures.

[2] = Solubility of the peptide; format: physicochemical; conditions: basic aqueous medium
[3] = low density culture, morphometric analysis
[4] = morphometric analysis, plastic, versus control
[5] = plates coated with thrombospondin and fibronectin, compared with the controls

Substance	overall effect on cortical neuron cultures (aggregation, adhesion, neuritic growth) (cortical neuronal cells)	adherent cells carrying neurites relative to controls (controls 24.4%) (cortical neuronal cells; low density culture) [times]	number of neurites per cell (cortical neuronal cells; [3])	morphology of the neuronal culture (cortical neuronal cells; after 5 days of culture, plastic substrate coated with the peptide)	increase in the number of neuronal aggregates (cortical neuronal cells; between control culture and culture treated with the peptide) [%]	length of the neurites (cortical neuronal cells; [3])	length of the neurites per aggregate (cortical neuronal cells; [4])	number of neurites per aggregate (cortical neuronal cells; [4])	length of the neurites per aggregate (cortical neuronal cells; [5])	number of neurites per aggregate (cortical neuronal cells; [5])	adhesion of the cells to the substrate (cortical neuronal cells; substrate coated with the peptide, 5 days of culture, versus control without peptide)	neuritic growth and fasciculation of the neurites (spinal cord neurons)	number of synaptic contacts between the neurites (spinal cord neurons)	distribution (aggregation) of the neurons (spinal cord neurons; in vitro)	appearance (phenotype) of the cells ([1]; in the presence of the peptide)	neuritic growth ([1]; increasing concentrations of peptide in the culture medium, morphometric analysis)	number of NIB104 neuroblastoma cells ([1]; versus control cultures)	solubility [2]
W-G-P-C-S-V-S-C-G- (WGPCSVSCG) [peptide SEQ ID NO: 11, second peptide according to the invention]	lower but, nevertheless, significant results	2.5	not															
WSGWSSCSRSCG (cysteine pairing not given here) [peptide SEQ ID NO: 8]		2	significant increase	aggregate and are essentially connected by bundles of long and thick neurites	9.3	significant increase	significant increase	significant increase	significantly increased	significantly increased	adhere well to the substrate	prominent neuritic growths forming a network without fasciculation of the neurites	increase in the number of synaptic contacts	remain distributed for at least one week	acquire a characteristic neuronal phenotype	gradually increases	considerably less numerous	soluble in basic aqueous medium
R-K-A-R- (RKAR) [peptide SEQ ID NO: 13, peptide for comparison, reference compound]	no representative result																	
